Data on 16 compounds can be found in PubChem BioAssay (NCI).

Values joined by “and” are separate entries in the source; they are usually repeats but may differ in a detail not shown here. Equal values may be shown once.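 Method: 48-hour compound exposure of cells in 96-well plates, five concentrations, linear interpolation of endpoints. GI50 is the concentration that inhibits growth by half. Definition used: TGI = concentration required for complete inhibition of growth.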

Test systems include M14 melanoma; HOP-92 NSCLC; DMS 273 small cell lung; SNB-78 CNS; U251 CNS; LXFL 529 NSCLC; M19-MEL melanoma; PC-3 prostate; RXF-631 renal; NCI/ADR-RES ovarian.
Common to all, as to assay: NCI tumour cell line growth inhibition, 48 h

Turning to `NC(N)=NS(=O)(=O)c1ccc(Nc2c3ccccc3nc3c(C(=O)N4CCN(CCO)CC4)cccc23)cc1`, the TGI in the assay on M14 melanoma, with HOP-92 NSCLC, in the assay with DMS 273 small cell lung, in the assay with SNB-78 CNS, in the assay on U251 CNS and in the assay with LXFL 529 NSCLC was more than 100 µM throughout. The compound also had a TGI with M19-MEL melanoma of more than 100 µM.
`C/C=C(\C)c1cc(=O)c2c(C)cc3c(c2o1)C(=O)c1c(O)c(C2CC(C)(N(C)C)C(O)C(C)O2)cc(C2CC(N(C)C)C(O)C(C)O2)c1C3=O` (configuration not stated): the TGI was 0.312 µM in the assay on M14 melanoma; 11.4 µM with DMS 273 small cell lung; 50.6 µM in the assay on SNB-78 CNS; 1.35 µM and 5.71 µM in the assay on U251 CNS; 1.42 µM with PC-3 prostate; 16.1 µM with M19-MEL melanoma. In addition, the GI50 in the assay with U251 CNS is 0.206 µM and 1.74 µM.
Take `O=C(CC(=O)c1ccc([N+](=O)[O-])cc1)C(=O)Nc1nccs1`: the TGI in the assay with M14 melanoma, in the assay with HOP-92 NSCLC, in the assay on DMS 273 small cell lung, with SNB-78 CNS, in the assay on U251 CNS and with RXF-631 renal was more than 100 µM in each case. In the assay with LXFL 529 NSCLC, the TGI is more than 100 µM.
For `N=CCCN(CCC=N)c1ccc(/C=C2\CN(NC(=O)c3ccc(Cl)cc3)C(c3ccccc3)=N2)cc1`, the TGI is more than 100 µM in the assay with M14 melanoma; more than 100 µM in the assay with HOP-92 NSCLC; more than 100 µM in the assay with DMS 273 small cell lung; more than 100 µM in the assay on SNB-78 CNS; 76.1 µM in the assay on U251 CNS; more than 100 µM with RXF-631 renal. This compound also registered a TGI in the assay with LXFL 529 NSCLC of more than 100 µM.
Turning to `O=C1c2cccc3cc([N+](=O)[O-])cc(c23)C(=O)N1NC1=NCCN1`, the TGI in the assay with M14 melanoma, in the assay with HOP-92 NSCLC, in the assay with DMS 273 small cell lung, in the assay with SNB-78 CNS, in the assay on U251 CNS and in the assay on RXF-631 renal was more than 100 µM in each case. Also, the TGI in the assay on LXFL 529 NSCLC and with M19-MEL melanoma was more than 100 µM in each case.
`CC(=O)[CH-]C(=O)c1ccccc1.CC(=O)[CH-]C(=O)c1ccccc1.COc1cccc([O-])c1[O-].[Ti+4]`: the GI50 is 64.9 µM in the assay on M14 melanoma; 57.8 µM in the assay on HOP-92 NSCLC; 25.7 µM in the assay on U251 CNS; 34.3 µM in the assay with LXFL 529 NSCLC; 32.4 µM with M19-MEL melanoma. Further, the TGI in the assay on M14 melanoma was more than 100 µM; with HOP-92 NSCLC it was more than 100 µM; in the assay on U251 CNS it was more than 100 µM; with LXFL 529 NSCLC, more than 100 µM; in the assay on M19-MEL melanoma it was 89.7 µM.
For `CN1C(OCc2ccccc2)c2c(ccc3c2OCO3)C2C=Cc3cc4c(cc3C21)OCO4` (configuration not stated), the TGI is 2.1 µM with M14 melanoma; 2.3 µM in the assay on HOP-92 NSCLC; 2.04 µM with SNB-78 CNS; 2.84 µM with U251 CNS; 2.09 µM in the assay with RXF-631 renal; 1.37 µM with LXFL 529 NSCLC. The same compound showed a TGI in the assay on M19-MEL melanoma of 0.361 µM.
As to `N#CCCN(CCC#N)C(=O)c1cccc(C(=O)N(CCC#N)CCC#N)c1`, the TGI with M14 melanoma is more than 100 µM; in the assay with HOP-92 NSCLC, more than 100 µM; in the assay with DMS 273 small cell lung, more than 100 µM; in the assay with SNB-78 CNS, more than 100 µM; with U251 CNS it was more than 59.4 µM; in the assay with LXFL 529 NSCLC, 19.2 µM. In the assay on M19-MEL melanoma, this compound showed a TGI of more than 100 µM.
Turning to `CN(C)c1ccc2c(c1)CN1C(=O)c3ccccc3C1=N2`, the GI50 in the assay with M14 melanoma, with HOP-92 NSCLC, in the assay with DMS 273 small cell lung, in the assay with SNB-78 CNS, with U251 CNS and in the assay with LXFL 529 NSCLC was more than 100 µM each time. The TGI in the assay with M14 melanoma, in the assay with HOP-92 NSCLC, in the assay on DMS 273 small cell lung, in the assay with SNB-78 CNS, with U251 CNS and with LXFL 529 NSCLC was more than 100 µM in each case.
Take `COc1ccc(CN2C(=O)C(Cc3cc(OC)c(OC)c(C)c3OC)NC(=O)/C2=C/c2cc(OC)c(OC)c(C)c2OC)cc1` (configuration not stated): the TGI was 96.9 µM in the assay on M14 melanoma; 67.7 µM with HOP-92 NSCLC; more than 100 µM in the assay with U251 CNS; more than 100 µM in the assay on RXF-631 renal; more than 100 µM in the assay on LXFL 529 NSCLC; 37.7 µM with M19-MEL melanoma.
As for `[N-]=[N+]=Nc1ccc(CCN2CCN(c3cccc(C(F)(F)F)c3)CC2)cc1I`, the TGI in the assay with M14 melanoma, with DMS 273 small cell lung, in the assay on SNB-78 CNS, in the assay with U251 CNS, in the assay with LXFL 529 NSCLC and with M19-MEL melanoma was more than 100 µM throughout.
Consider `Nc1ncnc2c1ncn2C1OC(CSC(F)(F)F)C(O)C1O` (configuration not stated), for which the TGI with M14 melanoma, with HOP-92 NSCLC, with DMS 273 small cell lung, in the assay on SNB-78 CNS, in the assay with U251 CNS and in the assay with LXFL 529 NSCLC was more than 100 µM each time. For the same compound, in the assay on M19-MEL melanoma, the TGI was more than 100 µM.
On to `CC1(C)C(c2ccccc2)=NN(O)c2ccccc21`, for which the TGI in the assay with M14 melanoma, in the assay on DMS 273 small cell lung, in the assay on SNB-78 CNS, in the assay on U251 CNS, in the assay with LXFL 529 NSCLC and with M19-MEL melanoma was more than 100 µM throughout.
For the compound `COC(=O)CCC(C)[C@H]1CCC2C3C(C[C@H](OC(C)=O)[C@@]21C)[C@@]1(C)CCC2(C[C@H]1C[C@H]3OC(C)=O)OOC1(CCC(C)CC1)OO2` (some centres not stated), the TGI was more than 100 µM in the assay with NCI/ADR-RES ovarian; more than 100 µM in the assay on M14 melanoma; 7.63 µM and 69.9 µM in the assay with HOP-92 NSCLC; more than 100 µM in the assay with U251 CNS; more than 100 µM in the assay on PC-3 prostate. In addition, in the assay on PC-3 prostate, the GI50 is 2.98 µM and 7.43 µM.
For `C[C@@H](C1CCC2C3C(=CC(=O)[C@@]21C)[C@H](C)[C@]1(CCC(=O)O1)C1OC31)[C@H]1C[C@]2(C)O[C@@](C)(O1)OC2(C)C` (some centres not stated), the TGI with M14 melanoma, in the assay with HOP-92 NSCLC, with DMS 273 small cell lung, in the assay on U251 CNS, in the assay with RXF-631 renal and with LXFL 529 NSCLC was more than 100 µM each time. The TGI with M19-MEL melanoma is more than 100 µM.
For `NC(C/[N+]([O-])=N/O)C(=O)O` (configuration not stated), the TGI in the assay with NCI/ADR-RES ovarian is more than 434 µM; in the assay with M14 melanoma, more than 459 µM; in the assay on HOP-92 NSCLC, > 100 µM and 209 µM; in the assay on DMS 273 small cell lung it was 50.4 µM; with SNB-78 CNS, more than 500 µM; in the assay with U251 CNS, more than 500 µM. Moreover, the figures for the TGI in the assay with PC-3 prostate and in the assay on M19-MEL melanoma were more than 500 µM and more than 373 µM, respectively. Besides, the GI50 was 28.9 µM and 37.5 µM and 24.4 µM in the assay with M14 melanoma; > 91.7 µM and 71.4 µM and 33.4 µM with HOP-92 NSCLC; 0.772 µM and 3.82 µM and 0.713 µM in the assay on U251 CNS; 6.71 µM and 3.64 µM and 4.92 µM with PC-3 prostate.
